Converted amounts (≈) assume the structure as drawn.
Experiments:
Staphylococcus aureus [1] = assay: Antibiofilm activity against methicillin resistant Staphylococcus aureus ATCC 43866 assessed as inhibition of biofilm formation incubated for 18 to 24 hrs by tissue culture plate method; assay type: functional; conditions: time 18-24 hrs
Staphylococcus aureus [2] = assay: Antibacterial activity against methicillin resistant Staphylococcus aureus 128 assessed as inhibition of bacterial growth; assay type: functional
Staphylococcus aureus [3] = assay: Antibacterial activity against methicillin resistant Staphylococcus aureus 181 assessed as inhibition of bacterial growth; assay type: functional
Staphylococcus aureus [4] = assay: Antibacterial activity against methicillin resistant Staphylococcus aureus 747 assessed as inhibition of bacterial growth; assay type: functional
Staphylococcus aureus [5] = assay: Antibacterial activity against methicillin resistant Staphylococcus aureus 42 assessed as inhibition of bacterial growth; assay type: functional
Staphylococcus aureus [6] = assay: microbe, parasite or virus in culture; conditions: 032
Description: Antibacterial activity against methicillin resistant Staphylococcus aureus 032 assessed as inhibition of bacterial growth by CLSI protocol based serial dilution method

Staphylococcus aureus [7] = assay: Antibacterial activity methicillin resistant Staphylococcus aureus 2658 RCMB assessed as inhibition of bacterial growth by broth microdilution method; assay type: functional
Staphylococcus aureus [8] = assay: Antibacterial activity against methicillin resistant Staphylococcus aureus assessed as inhibition zone by disc diffusion method; assay type: functional
Staphylococcus aureus [9] = assay: Antibacterial activity against methicillin resistant Staphylococcus aureus assessed as inhibition of bacterial growth by broth dilution technique; assay type: functional

`Cn1c(-c2nnc(-c3ccccc3)o2)cc(Br)c1Br` gave an MIC (Staphylococcus aureus [1]) of 6.25 µg/mL (≈ 16.3 µM).

Compound `O=c1c(Br)cnc2onc(-c3cccc(Cl)c3Cl)n12` has an MIC (Staphylococcus aureus [2]) of 90.3 µg/mL (≈ 250 µM), an MIC (Staphylococcus aureus [3]) of no less than 125 µg/mL and an MIC (Staphylococcus aureus [4]) of no less than 125 µg/mL. For the same compound, the MIC (Staphylococcus aureus [5]) was 86.2 µg/mL (≈ 239 µM).

In the case of `Cn1c(-c2nnc(-c3ccc(N)cc3)o2)cc(Br)c1Br`, the MIC (Staphylococcus aureus [1]) is reported as 1.56 µg/mL (≈ 3.92 µM).

For `Cn1c(-c2nnc(Cc3ccccc3)o2)cc(Br)c1Br`, the MIC (Staphylococcus aureus [1]) was 6.25 µg/mL (≈ 15.7 µM).

Work on `CC1(C)S[C@@H]2[C@H](NC(=O)[C@H](N)c3ccccc3)C(=O)N2[C@H]1C(=O)O` [AMPICILLIN] yielded an MIC (Staphylococcus aureus [6]) greater than 32 µg/mL.

Work on `Cc1nc(-c2ccc(C(C)(C)C)cc2)sc1-c1nnc(NC(=N)c2ccncc2)o1` yielded an MIC (Staphylococcus aureus [7]) greater than 50 µg/mL.

`O=c1c(F)cnc2onc(-c3ccccc3Cl)n12` was tested, and the MIC (Staphylococcus aureus [2]) was no less than 125 µg/mL, the MIC (Staphylococcus aureus [3]) was no less than 125 µg/mL and the MIC (Staphylococcus aureus [4]) was no less than 125 µg/mL. The MIC (Staphylococcus aureus [5]) was no less than 125 µg/mL.

In the case of `CCCCCCCCCCCCCCc1nnc(-c2ccco2)o1`, the “inhibition zone (IZ)” value (Staphylococcus aureus [8]) is reported as 15.5 mm and the MIC (Staphylococcus aureus [9]) is reported as 12.5 µg/mL (≈ 37.6 µM).

With `Cc1nc(/C(=C\c2coc3c(Cl)cc(Cl)cc3c2=O)c2ccc([N+](=O)[O-])cc2)no1` the MIC (Staphylococcus aureus [6]) was 32 µg/mL (≈ 72 µM).

Work on `O=c1c(F)cnc2onc(-c3ccc(Cl)cc3Cl)n12` yielded an MIC (Staphylococcus aureus [2]) of no less than 125 µg/mL, an MIC (Staphylococcus aureus [3]) of no less than 125 µg/mL and an MIC (Staphylococcus aureus [4]) of no less than 125 µg/mL. It also gave an MIC (Staphylococcus aureus [5]) of 116 µg/mL (≈ 388 µM).

In the case of `COc1ccc(-c2nnc(-c3cc(Br)c(Br)n3C)o2)cc1`, the MIC (Staphylococcus aureus [1]) is reported as 1.56 µg/mL (≈ 3.78 µM).

`O=c1c(Br)cnc2onc(-c3ccc(Cl)cc3)n12` showed an MIC (Staphylococcus aureus [2]) of 96.3 µg/mL (≈ 295 µM), an MIC (Staphylococcus aureus [3]) of 53.6 µg/mL (≈ 164 µM) and an MIC (Staphylococcus aureus [4]) of 59.4 µg/mL (≈ 182 µM). The MIC (Staphylococcus aureus [5]) was 96.4 µg/mL (≈ 295 µM).

`CCCCCCCC/C=C/CCCCCCc1nnc(-c2ccccc2Cl)o1` was tested, and the “inhibition zone (IZ)” value (Staphylococcus aureus [8]) was 16.6 mm and the MIC (Staphylococcus aureus [9]) was 12.5 µg/mL (≈ 31 µM).

`Cn1c(-c2nnc(/C=C/c3ccccc3)o2)cc(Br)c1Br` showed an MIC (Staphylococcus aureus [1]) of 6.25 µg/mL (≈ 15.3 µM).

Work on `Cc1nc(/C(=C\c2coc3cc(C)c(Cl)cc3c2=O)c2ccc([N+](=O)[O-])cc2)no1` yielded an MIC (Staphylococcus aureus [6]) of 16 µg/mL (≈ 37.8 µM).

In the case of `O=c1c(Br)cnc2onc(-c3ccccc3Cl)n12`, the MIC (Staphylococcus aureus [2]) is reported as 84.4 µg/mL (≈ 258 µM), the MIC (Staphylococcus aureus [3]) is reported as 79.4 µg/mL (≈ 243 µM) and the MIC (Staphylococcus aureus [4]) is reported as 79.4 µg/mL (≈ 243 µM). It also gave an MIC (Staphylococcus aureus [5]) of 76.4 µg/mL (≈ 234 µM).

For `CCCCCCCC/C=C/CCCCCCc1nnc(-c2ccco2)o1`, the “inhibition zone (IZ)” value (Staphylococcus aureus [8]) was 20.8 mm and the MIC (Staphylococcus aureus [9]) was 12.5 µg/mL (≈ 34.9 µM).

`Cc1ccc(-c2noc3ncc(Br)c(=O)n23)cc1` gave an MIC (Staphylococcus aureus [2]) of no less than 125 µg/mL, an MIC (Staphylococcus aureus [3]) of no less than 125 µg/mL and an MIC (Staphylococcus aureus [4]) of no less than 125 µg/mL. For the same compound, the MIC (Staphylococcus aureus [5]) was 119 µg/mL (≈ 388 µM).

`O=c1c(F)cnc2onc(-c3c(F)cccc3F)n12` showed an MIC (Staphylococcus aureus [2]) of no less than 125 µg/mL, an MIC (Staphylococcus aureus [3]) of 120 µg/mL (≈ 447 µM) and an MIC (Staphylococcus aureus [4]) of no less than 125 µg/mL. It also gave an MIC (Staphylococcus aureus [5]) of 122 µg/mL (≈ 458 µM).

`O=c1c(F)cnc2onc(-c3cccc(Cl)c3Cl)n12` showed an MIC (Staphylococcus aureus [2]) of no less than 125 µg/mL, an MIC (Staphylococcus aureus [3]) of no less than 125 µg/mL and an MIC (Staphylococcus aureus [4]) of no less than 125 µg/mL. It also gave an MIC (Staphylococcus aureus [5]) of 101 µg/mL (≈ 336 µM).

`Cc1nc(/C(=C\c2coc3ccc(Cl)cc3c2=O)c2ccc([N+](=O)[O-])cc2)no1` was tested, and the MIC (Staphylococcus aureus [6]) was greater than 32 µg/mL.

In the case of `Cc1cc(C)c2occ(/C=C(/c3ccc([N+](=O)[O-])cc3)c3noc(C)n3)c(=O)c2c1`, the MIC (Staphylococcus aureus [6]) is reported as greater than 32 µg/mL.

In the case of `Cn1c(-c2nnc(-c3ccncc3)o2)cc(Br)c1Br`, the MIC (Staphylococcus aureus [1]) is reported as 3.12 µg/mL (≈ 8.14 µM).

With `Cc1ccc2occ(/C=C(/c3ccc([N+](=O)[O-])cc3)c3noc(C)n3)c(=O)c2c1` the MIC (Staphylococcus aureus [6]) was greater than 32 µg/mL.

In the case of `CCCCCCCCCCCCCCc1nnc(-c2ccccc2Cl)o1`, the “inhibition zone (IZ)” value (Staphylococcus aureus [8]) is reported as 12.1 mm and the MIC (Staphylococcus aureus [9]) is reported as 12.5 µg/mL (≈ 33.2 µM).

In the case of `Cc1nc(/C(=C\c2coc3ccc(Br)cc3c2=O)c2ccc([N+](=O)[O-])cc2)no1`, the MIC (Staphylococcus aureus [6]) is reported as greater than 32 µg/mL.

In the case of `Cn1c(-c2nnc(-c3cc(Br)c(Br)[nH]3)o2)cc(Br)c1Br`, the MIC (Staphylococcus aureus [1]) is reported as 1.56 µg/mL (≈ 2.94 µM).

In the case of `Cc1nc(-c2ccc(C(C)(C)C)cc2)sc1-c1nnc(NC(=N)N2CCOCC2)o1`, the MIC (Staphylococcus aureus [7]) is reported as 25 µg/mL (≈ 58.6 µM).

Compound `O=c1c(Br)cnc2onc(-c3cccc(F)c3F)n12` has an MIC (Staphylococcus aureus [2]) of 37.8 µg/mL (≈ 115 µM), an MIC (Staphylococcus aureus [3]) of 42.1 µg/mL (≈ 128 µM) and an MIC (Staphylococcus aureus [4]) of 42.1 µg/mL (≈ 128 µM). It also gave an MIC (Staphylococcus aureus [5]) of 20.8 µg/mL (≈ 63.4 µM).

In the case of `C=CCCCCCCCc1nnc(-c2ccco2)o1`, the “inhibition zone (IZ)” value (Staphylococcus aureus [8]) is reported as 11.1 mm and the MIC (Staphylococcus aureus [9]) is reported as 12.5 µg/mL (≈ 48 µM).

— ChEMBL document CHEMBL5241069, “A key review on oxadiazole analogs as potential methicillin-resistant Staphylococcus aureus (MRSA) activity: Structure-activity relationship studies” (Eur J Med Chem, 2021)
